Read-outs that look alike come from different tables or passages of the source.
Tests used:
Ag ace-1S [1] = molecular target: T1, Ag ace-1S (Anopheles gambiae, UniProt Q869C3); assay: biochemical
T1 construct: encoding the entire wild type AgAChE protein (ace1, 737 amino acids); made in house; host or cells: Drosophila S2 cells (stably transfected, pMT/V5-His vector), clarified cell lysate

Ag ace-1S [2] = assay: biochemical; parameters: species or system Anopheles gambiae; settings: selectivity, values in parenthesis
Anopheles gambiae = assay: Live mosquito contact toxicity, WHO filter paper assay; type: in vivo; settings: for Live Mosquito Contact Toxicity MC for 100% lethality at 24 hr: 1 hr exposure to treated filter paper
hAChE = molecular target: T2, hAChE (Homo sapiens, UniProt P22303); assay: Ellman AChE inhibition assay, recombinant hAChE; type: biochemical
T2 construct: purchased Sigma C1682

Ag hmg AChE = molecular target: T3, Ag hmg AChE (Anopheles gambiae, UniProt Q869C3); assay: Ellman AChE inhibition assay, Anopheles gambiae homogenate (Ag hmg); type: biochemical; settings: for IC50: pH 7.8, 10 min preincubation; for IC50 ratio (hAChE/Ag hmg): selectivity, values in parenthesis
T3 construct: To prepare the Ag homogenate (Ag hmg) 10 Anopheles gambiae mosquitoes were combined; from tissue; host or cells: whole Anopheles gambiae mosquitoes, crude homogenate supernatant

Md hmg AChE = molecular target: T4, Md hmg AChE (Musca domestica, UniProt Q7YWJ9)
T4 construct: Comparison of Ag homogenate and Md head; host or cells: housefly head homogenate

[3] = recombinant Anopheles gambiae AChE, WT (susceptible) strain, read-out: Ag ace-1S IC50
[4] = pH 7.8, 10 min preincubation, read-out: hAChE recomb. IC50
[5] = WT Anopheles gambiae homogenate, read-out: Ag WT hmg IC50
[6] = Musca domestica head homogenate; data from Metcalf / Kolbezen; read-out: Md WT hmg IC50; cited from earlier work
[7] = read-out: Md WT hmg IC50; Musca domestica head homogenate; data from Metcalf / Kolbezen; cited from earlier work
[8] = Ag WT hmg IC50, WT Anopheles gambiae homogenate

T4 sequence (Q7YWJ9 1-692): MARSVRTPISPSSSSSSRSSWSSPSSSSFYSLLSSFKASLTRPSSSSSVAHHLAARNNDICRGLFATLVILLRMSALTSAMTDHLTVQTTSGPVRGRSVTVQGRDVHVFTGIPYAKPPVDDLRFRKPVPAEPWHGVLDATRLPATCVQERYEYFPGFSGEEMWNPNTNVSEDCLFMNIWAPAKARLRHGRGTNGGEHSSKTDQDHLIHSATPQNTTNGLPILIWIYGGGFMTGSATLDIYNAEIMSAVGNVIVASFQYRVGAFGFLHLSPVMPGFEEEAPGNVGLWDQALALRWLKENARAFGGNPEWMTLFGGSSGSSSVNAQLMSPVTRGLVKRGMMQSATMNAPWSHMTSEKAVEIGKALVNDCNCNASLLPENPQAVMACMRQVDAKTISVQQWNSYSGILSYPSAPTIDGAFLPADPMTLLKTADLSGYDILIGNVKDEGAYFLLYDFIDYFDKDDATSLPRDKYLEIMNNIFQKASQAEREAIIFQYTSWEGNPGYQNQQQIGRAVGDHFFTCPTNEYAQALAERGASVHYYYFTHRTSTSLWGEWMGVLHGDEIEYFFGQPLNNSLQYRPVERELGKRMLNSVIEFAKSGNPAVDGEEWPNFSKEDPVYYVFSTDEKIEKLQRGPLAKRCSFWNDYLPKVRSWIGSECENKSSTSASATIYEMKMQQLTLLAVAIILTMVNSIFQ
T1 sequence (Q869C3 39-737): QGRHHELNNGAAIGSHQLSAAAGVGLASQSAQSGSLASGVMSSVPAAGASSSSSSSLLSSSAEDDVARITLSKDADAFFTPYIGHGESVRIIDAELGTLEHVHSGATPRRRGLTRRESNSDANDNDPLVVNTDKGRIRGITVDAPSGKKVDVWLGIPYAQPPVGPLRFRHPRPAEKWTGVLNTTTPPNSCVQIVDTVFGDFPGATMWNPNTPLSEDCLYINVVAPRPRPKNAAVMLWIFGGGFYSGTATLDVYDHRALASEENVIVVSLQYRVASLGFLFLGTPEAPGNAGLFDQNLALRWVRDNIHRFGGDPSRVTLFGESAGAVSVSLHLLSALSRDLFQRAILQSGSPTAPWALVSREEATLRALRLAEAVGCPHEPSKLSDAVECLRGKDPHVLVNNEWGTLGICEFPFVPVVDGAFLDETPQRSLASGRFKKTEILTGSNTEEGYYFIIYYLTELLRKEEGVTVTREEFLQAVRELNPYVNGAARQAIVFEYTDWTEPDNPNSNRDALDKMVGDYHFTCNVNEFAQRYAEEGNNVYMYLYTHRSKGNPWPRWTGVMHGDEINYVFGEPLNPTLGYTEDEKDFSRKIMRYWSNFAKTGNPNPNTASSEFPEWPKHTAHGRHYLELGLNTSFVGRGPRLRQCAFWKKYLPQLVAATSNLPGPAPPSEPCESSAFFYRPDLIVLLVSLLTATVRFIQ
T3 sequence (Q869C3 39-737): as above
T2 sequence (P22303 32-614): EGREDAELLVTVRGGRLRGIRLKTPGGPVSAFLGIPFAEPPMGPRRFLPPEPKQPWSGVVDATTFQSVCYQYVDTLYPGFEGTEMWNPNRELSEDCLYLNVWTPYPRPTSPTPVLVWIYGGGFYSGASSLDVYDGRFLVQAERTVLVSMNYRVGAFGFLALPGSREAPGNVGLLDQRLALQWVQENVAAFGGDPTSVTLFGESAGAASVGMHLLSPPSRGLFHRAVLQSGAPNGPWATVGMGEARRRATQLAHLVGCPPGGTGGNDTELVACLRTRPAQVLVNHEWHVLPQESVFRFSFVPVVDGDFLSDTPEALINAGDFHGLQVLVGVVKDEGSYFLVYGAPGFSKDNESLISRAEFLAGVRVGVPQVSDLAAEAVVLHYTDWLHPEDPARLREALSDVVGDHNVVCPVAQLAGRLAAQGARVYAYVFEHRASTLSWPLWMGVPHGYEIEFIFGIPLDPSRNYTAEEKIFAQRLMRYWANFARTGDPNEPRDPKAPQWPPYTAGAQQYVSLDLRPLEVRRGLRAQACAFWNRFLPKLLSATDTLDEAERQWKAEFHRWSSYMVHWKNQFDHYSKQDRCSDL

Row | Molecule | IC50 (Ag ace-1S [1]; [3]) [nM] | IC50 ratio (hAChE/Ag ace-1S) (Ag ace-1S [2]) | Live Mosquito Contact Toxicity MC for 100% lethality at 24 hr (Anopheles gambiae) [ug/cm^2] | IC50 (hAChE; [4]) [nM] | IC50 (Ag hmg AChE; [5]) [nM] | IC50 ratio (hAChE/Ag hmg) (Ag hmg AChE) | IC50 (Ag ace-1S [1]) [nM] | IC50 (Md hmg AChE; [6]) [µM] | IC50 (Md hmg AChE; [7]) [µM] | IC50 (hAChE) [nM] | IC50 (Ag hmg AChE; [8]) [nM] | difference in potency Ag hmg AChE vs Md hmg AChE (Ag hmg AChE; more potent at Ag hmg AChE) [fold] | lethality at 24 h (Anopheles gambiae; at 11 ug/cm^2, 1 hr exposure) | lethality at 24 h (Anopheles gambiae; at 56 ug/cm^2, 1 hr exposure) [% lethal at 56] | lethality at 24 h (Anopheles gambiae; at 5.6 ug/cm^2, 1 hr exposure) [% lethal at 5.6]
1 | 2-isopropylphenyl-N-methylcarbamate [Compound 22b] | 426 | (11x) | 56 | 4540 | 507 | (8.8x) | – | – | – | – | – | – | – | – | –
2 | CNC(=O)O/N=C/C(C)(C)SC [Aldicarb, reference compound] | – | – | 0.55 | – | 4620 | – | 10900 | 84 | – | – | – | – | – | – | –
3 | CNC(=O)Oc1cccc2c1OC(C)(C)O2 [Bendiocarb, reference compound] | – | (1.9x) | 0.55 | 270 | 65 | (4.1x) | 142 | – | – | – | – | – | – | – | –
4 | CNC(=O)Oc1cccc2ccccc12 [Carbaryl, reference compound] | – | – | – | 2840 | 262 | – | 515 | 0.9 | – | – | – | – | – | – | –
5 | CNC(=O)Oc1cccc([Si](C)(C)C)c1 [Compound 2a, N-methyl 3-(trimethylsilyl)phenyl carbamate] | – | (130x) | 5.6 | – | – | (95x) | 4.1 | – | 0.7 | 532 | 5.6 | 100 | – | – | –
6 | CC[Si](C)(C)c1cccc(OC(=O)NC)c1 [Compound 3a, N-methyl 3-ethyldimethylsilylphenyl carbamate] | – | (130x) | 11 | – | – | (110x) | 2.2 | – | – | 285 | 2.7 | – | – | – | –
7 | CNC(=O)Oc1cccc(C(C)C)c1 [Compound 4a] | – | – | – | – | – | – | 12 | – | 0.34 | – | 27 | – | – | – | –
8 | CCc1cccc(OC(=O)NC)c1 [Compound 5a] | – | (6.4x) | 11 | – | – | (4.0) x | 392 | – | 13 | 2500 | 630 | – | – | – | –
9 | CNC(=O)Oc1cccc(-c2ccccc2)c1 [Compound 6a] | – | (3.2x) | 56 | – | – | (2.1x) | 12100 | – | – | 38900 | 18400 | – | – | – | –
10 | CNC(=O)Oc1cccc(Cl)c1 [Compound 7a] | – | (5.2x) | 56 | – | – | (3.3x) | 16600 | – | 50 | 86000 | 26000 | – | – | – | –
11 | CNC(=O)Oc1cccc(Br)c1 [Compound 8a] | – | (>13x) | 11 | – | – | (>4.2x) | 7610 | – | 13 | > 100000 | 24000 | – | – | – | –
12 | CNC(=O)Oc1cccc(I)c1 [Compound 9a] | – | (37x) | 11 | – | – | (13x) | 1820 | – | 7 | 67200 | 5170 | – | – | – | –
13 | CNC(=O)Oc1cc(C)cc(C)c1 [Compound 10a] | – | (17x) | 56 | – | – | (6.2x) | 1040 | – | 6 | 17400 | 2780 | – | – | – | –
14 | CNC(=O)Oc1cc(C(C)(C)C)cc(C(C)(C)C)c1 [Compound 11a] | – | (2.1x) | – | – | – | (1.0x) | 2470 | – | 0.078 | 5170 | 5320 | – | None at 11 | – | –
15 | C=C(Cl)CSc1ccccc1OC(=O)NC [Compound 14b, 2-(2-chloroallylthio)phenyl-N-methylcarbamate] | – | – | 11 | – | – | – | 264 | – | – | 3100 | 114 | – | – | – | –
16 | C=C(Br)CSc1ccccc1OC(=O)NC [Compound 15b, 2-(2-bromoallylthio)phenyl-N-methylcarbamate] | – | – | – | – | – | – | 173 | – | – | 1660 | 248 | – | – | 93 | –
17 | C=CCSc1ccccc1OC(=O)NC [Compound 16b, 2-(allylthio)phenyl-N-methylcarbamate] | – | – | 5.6 | – | – | – | 36 | – | – | 1580 | 156 | – | – | – | –
18 | C/C=C/CSc1ccccc1OC(=O)NC [Compound 17b, (E)-2-(but-2-enylthio)phenyl-N-methylcarbamate] | – | – | – | – | – | – | 68 | – | – | 494 | 57 | – | – | – | 93
19 | CNC(=O)Oc1ccccc1SCC=C(C)C [Compound 18b, 2-(3-methylbut-2-enylthio)phenyl-N-methylcarbamate] | – | – | 56 | – | – | – | 411 | – | – | 2700 | 1180 | – | – | – | –
20 | C=C(Br)COc1ccccc1OC(=O)NC [Compound 21b, 2-(2-bromoallyloxy)phenyl-N-methylcarbamate] | – | – | 11 | – | – | – | 741 | – | – | 31900 | 1070 | – | – | – | –
21 | CNC(=O)Oc1ccccc1C(C)(C)C [Compound 23b, 2-tert-butylphenyl methylcarbamate] | – | (1.9x) | 56 | – | – | (>1.3x) | 51700 | – | – | > 100000 | 79000 | – | – | – | –
22 | CNC(=O)ON=C(C)SC [Methomyl, reference compound] | – | (0.36x) | 2.7 | 626 | 716 | (0.87x) | 1760 | – | – | – | – | – | – | – | –
23 | CNC(=O)Oc1ccccc1OC(C)C [Propoxur, reference compound] | – | (2.1x) | 1.1 | – | – | (1.2x) | 213 | – | 0.67 | 444 | 371 | – | – | – | –
24 | N-methyl-3-fluoro-5-trifluoromethylphenylcarbamate [Compound 12a] | 78500 | – | – | > 100000 | > 100000 | – | – | – | – | – | – | – | None at 11 | – | –

Source: patent US8618162B2 (priority 2007, dated 2013)
